Some test systems named below: SF-268 CNS; A549 NSCLC; M14 melanoma; HOP-92 NSCLC; CCRF-CEM leukemia; NCI-H226 lung; HT29 colon; RXF 393 renal; OVCAR-4 ovarian; HOP-62 NSCLC; NCI/ADR-RES ovarian; BT-549 breast.
Assay in all cases: growth of human tumour cells (NCI), 48 h

Each structure is given as a SMILES string.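 In this assay, cells in 96-well plates receive the compound at five concentrations for 48 hours. Endpoints are linearly interpolated between the surrounding concentrations. At the TGI there is no net growth.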 Where only a bound is given, the exact number is not on record here.

Regarding `COC(=O)c1cc(C(=O)OC)c(CC(=O)C(=O)NC2C3CC4CC(C3)CC2C4)nc1CC(=O)C(=O)NC1C2CC3CC(C2)CC1C3` (stereo not drawn), the TGI in the assay on SF-268 CNS, in the assay with A549 NSCLC, with M14 melanoma, in the assay with HOP-92 NSCLC, in the assay with CCRF-CEM leukemia and in the assay on NCI-H226 lung was > 100 µM each time. The TGI in the assay on HT29 colon, in the assay with RXF 393 renal, in the assay on OVCAR-4 ovarian and with HOP-62 NSCLC was > 100 µM in each case.

As for `CCOC(=O)C1SC(=Nc2ccc(OC)c(OC)c2)N=C1C` (stereo not drawn), the TGI in the assay on SF-268 CNS was > 100 µM; with A549 NSCLC it was > 100 µM; in the assay with M14 melanoma, > 100 µM; in the assay with HOP-92 NSCLC, > 100 µM; in the assay on CCRF-CEM leukemia it was 59 µM; with NCI-H226 lung, > 100 µM. For the same compound, the TGI with HT29 colon is 34.8 µM; with RXF 393 renal, > 100 µM; with OVCAR-4 ovarian it was > 100 µM; in the assay with HOP-62 NSCLC it was > 100 µM.

As to `COc1ccc(C2=NN(c3ccccc3)C[N+](c3ccc(C)cc3)=N2)cc1`, the TGI with SF-268 CNS was > 100 µM; in the assay on A549 NSCLC, > 100 µM; in the assay with CCRF-CEM leukemia, 60.8 µM; in the assay with NCI-H226 lung, > 100 µM; with HT29 colon it was > 100 µM; in the assay on RXF 393 renal it was 57.9 µM. The TGI in the assay with OVCAR-4 ovarian was 43.3 µM; with HOP-62 NSCLC, > 100 µM.

As to `COc1ccc(/C=C2/CSCC3=C2NC(=S)NC3c2ccc(OC)c(OC)c2OC)c(OC)c1OC` (stereo not drawn), the TGI with SF-268 CNS was > 100 µM; in the assay on A549 NSCLC, 95.9 µM; with M14 melanoma, 32.6 µM; in the assay on CCRF-CEM leukemia, > 100 µM; in the assay on NCI-H226 lung, 99.3 µM; with HT29 colon, 61.1 µM. Moreover, the TGI in the assay with RXF 393 renal is 52.9 µM; in the assay on OVCAR-4 ovarian, 74.4 µM; with HOP-62 NSCLC it was 47.9 µM; with NCI/ADR-RES ovarian, 32.2 µM.

As for `O=C(O)/C(Cl)=C(\Cl)C(=O)c1ccccc1`, the TGI with SF-268 CNS, in the assay on A549 NSCLC, in the assay on M14 melanoma, in the assay with HOP-92 NSCLC, in the assay on CCRF-CEM leukemia and in the assay with NCI-H226 lung was > 100 µM each time. The TGI in the assay on HT29 colon, in the assay with RXF 393 renal, with OVCAR-4 ovarian and in the assay on HOP-62 NSCLC was > 100 µM each time.

As to `N#Cc1ccc(Cc2ccccn2)cc1Cl`, the TGI in the assay on SF-268 CNS, in the assay with A549 NSCLC, with HOP-92 NSCLC, with CCRF-CEM leukemia, with NCI-H226 lung and in the assay on HT29 colon was > 100 µM throughout. In addition, the TGI with RXF 393 renal, in the assay on OVCAR-4 ovarian and in the assay with HOP-62 NSCLC was > 100 µM each time.

Consider `CC(=O)OC(CC1(C)C(C)CCC23COC(=O)C2=CCCC31)c1ccoc1` (stereo not drawn), for which the TGI with SF-268 CNS was 36.2 µM; in the assay on A549 NSCLC it was > 100 µM; in the assay with M14 melanoma, 33.9 µM; in the assay with HOP-92 NSCLC, 52.5 µM; with CCRF-CEM leukemia it was 80.3 µM; in the assay with NCI-H226 lung, 44.1 µM. Further, the TGI was > 100 µM in the assay on HT29 colon, 27.7 µM in the assay with RXF 393 renal, > 100 µM with OVCAR-4 ovarian and 85.3 µM in the assay with HOP-62 NSCLC.

In the case of `COC(=O)c1c(C(=O)OC)c2ccccn2c1-c1cc(OC)c(Br)c(=O)o1`, the TGI with SF-268 CNS, with A549 NSCLC, with M14 melanoma, in the assay with CCRF-CEM leukemia, in the assay with NCI-H226 lung and with HT29 colon was > 100 µM in each case. For the same compound, the TGI in the assay on RXF 393 renal, with OVCAR-4 ovarian, in the assay with HOP-62 NSCLC and with NCI/ADR-RES ovarian was > 100 µM throughout.

Take `S=C(NCCc1ccccn1)N/N=C/c1ccccn1`: the TGI in the assay with SF-268 CNS was > 100 µM; in the assay on A549 NSCLC it was 7.68 µM; in the assay with M14 melanoma, 3.39 µM; in the assay on CCRF-CEM leukemia, < 0.01 µM; in the assay on NCI-H226 lung it was 0.986 µM; in the assay on HT29 colon, > 100 µM. Moreover, the TGI is 12.2 µM in the assay on RXF 393 renal, > 74.7 µM with OVCAR-4 ovarian, 0.0696 µM in the assay on HOP-62 NSCLC and > 100 µM with NCI/ADR-RES ovarian.

On to `CNC(=O)NCNC(=O)NC`, for which the TGI in the assay on A549 NSCLC, in the assay with M14 melanoma, in the assay on HOP-92 NSCLC, in the assay with CCRF-CEM leukemia, in the assay with HT29 colon and in the assay on OVCAR-4 ovarian was > 100 µM in each case. For the same compound, the TGI in the assay on HOP-62 NSCLC was > 100 µM.

As for `CCCCn1c(CSc2ccc(Cl)cc2)c(C(=O)OCC)c2cc(OC)c(Br)cc21`, the TGI in the assay on SF-268 CNS, in the assay on A549 NSCLC, in the assay with M14 melanoma, in the assay with BT-549 breast, in the assay with CCRF-CEM leukemia and with NCI-H226 lung was > 100 µM throughout. Besides, the TGI in the assay on OVCAR-4 ovarian, in the assay with HOP-62 NSCLC and with NCI/ADR-RES ovarian was > 100 µM throughout.

Turning to `O=C(Nc1ccc(Cl)cc1C(F)(F)F)C(=O)C1CCCS1(=O)=O` (stereo not drawn), the TGI in the assay with SF-268 CNS was > 100 µM; with A549 NSCLC, > 100 µM; in the assay with M14 melanoma, > 100 µM; in the assay on HOP-92 NSCLC, > 10 µM; in the assay on CCRF-CEM leukemia, > 100 µM; with NCI-H226 lung, > 100 µM. Also, the TGI with HT29 colon, with RXF 393 renal, in the assay on OVCAR-4 ovarian and in the assay on HOP-62 NSCLC was > 100 µM throughout.

In the case of `CC(CCC[C@H](C)CO)[C@H]1[C@@H](O)C(O)C2[C@@H]3C[C@@H](O)C4(O)C[C@@H](O)CC[C@]4(C)C3CC[C@@]21C` (stereo partly drawn), the TGI with SF-268 CNS, in the assay on A549 NSCLC, in the assay on M14 melanoma, in the assay on HOP-92 NSCLC, in the assay with CCRF-CEM leukemia and in the assay with NCI-H226 lung was > 100 µM in each case. For the same compound, the TGI with HT29 colon, in the assay on RXF 393 renal, in the assay on OVCAR-4 ovarian and in the assay with HOP-62 NSCLC was > 100 µM in each case.

As to `COc1cc2c(c(OC)c1OC)-c1ccc(SC)c(=O)cc1C(CC(=O)Oc1cccc([N+](=O)[O-])c1)C2` (stereo not drawn), the TGI is > 27.2 µM in the assay on SF-268 CNS; > 100 µM in the assay on A549 NSCLC; > 100 µM in the assay on M14 melanoma; > 100 µM in the assay on HOP-92 NSCLC; > 57.2 µM with CCRF-CEM leukemia; 3.51 µM with NCI-H226 lung. Besides, the TGI with HT29 colon was 1.99 µM; with RXF 393 renal, > 100 µM; in the assay on OVCAR-4 ovarian, > 100 µM; with HOP-62 NSCLC, > 100 µM.

The record behind these values is PubChem BioAssay (NCI).
